Measurements taken from patent publication US11510886B2, “Metformin amino acid compounds and methods of using the same” (Laboratorios Silancs S.A. DE C.V., priority 2016, dated 2022).
Where two headings read alike, the source gives them in different places.

How the values were obtained:
[1] = for Body weight (g) On administration day / Body weight (g) On distribution day / Body weight (g) On first administration day: Mean ± SD; for Body weight (g) On distribution day: before dosing
[2] = STZ-diabetic male rats, mean ± SD; for Absolute body weight, Day −3 (before STZ administration): baseline before STZ and before first TI/RI administration; for Absolute body weight, Day −1 / Absolute body weight, Day −2 (distribution of groups): before first TI/RI administration
[3] = tested on: rat model of streptozotocin-induced diabetes; experiment: Blood glucose levels in rat model of streptozotocin-induced diabetes, 14 days oral; details: for Blood glucose levels before TI/RI administration, Day −3 (before STZ administration): rats, baseline before STZ and before first TI/RI administration
blood glucose level = experiment: Effect of metformin compounds on the glucokinetic profile after oral glucose overload; type: in vivo, Rat; details: for blood glucose level vs vehicle, after the oral glucose overload: 750 mg/kg for five days, glucose 3 g/kg, isolated time points 0.25-4 hours; for Blood glucose level, 0.25 h post-glucose overload / Blood glucose level, 0.5 h post-glucose overload / Blood glucose level, 2 h post-glucose overload / Blood glucose level, 6 h post-glucose overload / Blood glucose level, pre-glucose overload / Blood glucose level, 1 h post-glucose overload / Blood glucose level, 4 h post-glucose overload / Blood glucose level, 3 h post-glucose overload: rat, 750 mg/kg referred to metformin base, mean ± SD; for Blood glucose level, 0.25 h post-glucose overload / Blood glucose level, pre-glucose overload / Blood glucose level, 1 h post-glucose overload / Blood glucose level, 4 h post-glucose overload: *p<0.05 vs vehicle; for Blood glucose level, 3 h post-glucose overload: *p<0.05, **p<0.01 vs vehicle
[4] = rat, in vivo, po, 250 mg/kg
[5] = terms of European Pharmacopeia 7.0 section 5.11
[6] = Groups L-U, 750 mg/kg, first column of this head
[7] = Groups L-U, 750 mg/kg, second column of this head

CN(C)C(=N)NC(=N)N.C[C@H](N)C(=O)O [Metformin alaninate, metformin alaninate]
macroscopic necropsy findings ([1]; 750 mg/kg for five days): small additional lobe | Body weight (g) On administration day ([1]; Groups B-K, 250 mg/kg): 202.49 ± 12.79 g | Body weight (g) On distribution day ([1]; Groups B-K, 250 mg/kg): 187.52 ± 10.28 g | Body weight (g) On distribution day ([1]; Groups L-U, 750 mg/kg): 186.18 ± 8.04 g | Body weight (g) On first administration day [1, 6]: 200.80 ± 10.15 g | Body weight (g) On first administration day [1, 7]: 195.43 ± 11.23 g | Absolute body weight, Day −3 (before STZ administration) [2]: 232.07 ± 6.17 g | Absolute body weight, Day −1 [2]: 208.00 ± 2.65 g | blood glucose levels 2 hours after administration on day 2 vs diabetic animals treated with vehicle ([3]; diabetic rats, 250 mg/kg as metformin base): significantly lower blood glucose levels | Blood glucose levels before TI/RI administration, Day −3 (before STZ administration) ([3]; mean ± SD): 121.33 ± 6.51 mg/dL | blood glucose level vs vehicle, after the oral glucose overload (blood glucose level; Dunn's test): statistically significant decreases | Blood glucose level, 0.25 h post-glucose overload (blood glucose level): 90.50 ± 13.72 mg/dL | Blood glucose level, 0.5 h post-glucose overload (blood glucose level): 94.75 ± 13.52 mg/dL | Blood glucose level, 2 h post-glucose overload (blood glucose level): 87.75 ± 9.00 mg/dL | Blood glucose level, 6 h post-glucose overload (blood glucose level): 84.00 ± 7.83 mg/dL | Blood glucose level, pre-glucose overload (blood glucose level): 82.25 ± 7.68 mg/dL | AUC(0-24) [4]: 126.09 µg·h/mL | Cmax [4]: 16400 ng/mL | Metformin base concentration in plasma, 0.5 h post-administration [4]: 14.77 ± 3.29 µg/mL | Metformin base concentration in plasma, 1 h post-administration [4]: 13.00 ± 1.39 µg/mL | Metformin base concentration in plasma, 2 h post-administration [4]: 14.97 ± 3.57 µg/mL | Metformin base concentration in plasma, 4 h post-administration [4]: 16.40 ± 5.23 µg/mL | Metformin base concentration in plasma, 8 h post-administration [4]: 3.56 ± 1.19 µg/mL | Metformin base concentration in plasma, 24 h post-administration [4]: 0.22 ± 0.08 µg/mL | Physical form (hygroscopicity) ([5]; listed as 13. ALANINE): Hygroscopic solid | Physical form (hygroscopicity) ([5]; listed as alanine): hygroscopic

CC[C@H](C)[C@H](N)C(=O)O.CN(C)C(=N)NC(=N)N [Metformin isoleucinate, metformin isoleucinate]
Body weight (g) On administration day ([1]; Groups B-K, 250 mg/kg): 197.30 ± 10.62 g | Body weight (g) On distribution day ([1]; Groups B-K, 250 mg/kg): 189.10 ± 7.62 g | Body weight (g) On distribution day ([1]; Groups L-U, 750 mg/kg): 190.40 ± 7.71 g | Body weight (g) On first administration day [1, 6]: 203.33 ± 5.11 g | Body weight (g) On first administration day [1, 7]: 196.80 ± 11.54 g | Absolute body weight, Day −3 (before STZ administration) [2]: 224.63 ± 9.17 g | Absolute body weight, Day −1 [2]: 211.30 ± 7.51 g | Absolute body weight, Day −2 (distribution of groups) [2]: 225.17 ± 10.85 g | Blood glucose levels before TI/RI administration, Day −3 (before STZ administration) ([3]; mean ± SD): 115.33 ± 4.93 mg/dL | blood glucose level vs vehicle, before the oral glucose overload (blood glucose level; 750 mg/kg (referred to metformin base) once a day for five days, Dunn's test): statistically significant decrease | blood glucose level vs vehicle, after the oral glucose overload (blood glucose level; Dunn's test): statistically significant decreases | blood glucose level vs vehicle, after the oral glucose overload (blood glucose level; Dunn's test, listed as metformin isoleucinate): statistically significant decrease | Blood glucose level, 0.5 h post-glucose overload (blood glucose level): 87.75 ± 12.97 mg/dL | Blood glucose level, 1 h post-glucose overload (blood glucose level): 89.75 ± 19.77 mg/dL | Blood glucose level, 2 h post-glucose overload (blood glucose level): 76.75 ± 11.44 mg/dL | Blood glucose level, 4 h post-glucose overload (blood glucose level): 80.50 ± 7.51 mg/dL | Blood glucose level, 6 h post-glucose overload (blood glucose level): 70.75 ± 17.04 mg/dL | AUC(0-24) [4]: 148.77 µg·h/mL | Cmax [4]: 21430 ng/mL | Metformin base concentration in plasma, 0.5 h post-administration [4]: 12.53 ± 1.91 µg/mL | Metformin base concentration in plasma, 1 h post-administration [4]: 14.47 ± 2.58 µg/mL | Metformin base concentration in plasma, 2 h post-administration [4]: 10.05 ± 2.33 µg/mL | Metformin base concentration in plasma, 4 h post-administration [4]: 21.43 ± 3.35 µg/mL | Metformin base concentration in plasma, 8 h post-administration [4]: 4.94 ± 0.80 µg/mL | Metformin base concentration in plasma, 24 h post-administration [4]: 0.24 ± 0.08 µg/mL | Physical form (hygroscopicity) ([5]; listed as 12. ISOLEUCIN): Hygroscopic solid | Physical form (hygroscopicity) ([5]; listed as isoleucine): hygroscopic

dimetformin aspartate
Body weight (g) On administration day ([1]; Groups B-K, 250 mg/kg): 188.42 ± 5.42 g | Body weight (g) On distribution day ([1]; Groups B-K, 250 mg/kg): 186.02 ± 5.04 g | Body weight (g) On distribution day ([1]; Groups L-U, 750 mg/kg): 192.05 ± 6.89 g | Body weight (g) On first administration day [1, 6]: 207.73 ± 9.57 g | Body weight (g) On first administration day [1, 7]: 197.30 ± 10.15 g | Absolute body weight, Day −3 (before STZ administration) [2]: 228.17 ± 10.17 g | Absolute body weight, Day −1 [2]: 205.23 ± 6.83 g | Absolute body weight, Day −2 (distribution of groups) [2]: 219.53 ± 13.36 g | Blood glucose levels before TI/RI administration, Day −1 ([3]; STZ-diabetic rats, before first TI/RI administration, mean ± SD, n.d. = all values beyond ULOD of glucometer (600 mg/dl), § n=1, ¢ n=2): 572.00^§ ± n.d.^§ mg/dL | Blood glucose levels before TI/RI administration, Day −3 (before STZ administration) ([3]; mean ± SD): 120.00 ± 2.65 mg/dL | Blood glucose level, 0.25 h post-glucose overload (blood glucose level): 96.00 ± 17.15 mg/dL | Blood glucose level, 0.5 h post-glucose overload (blood glucose level): 98.50 ± 13.70 mg/dL | Blood glucose level, 1 h post-glucose overload (blood glucose level): 103.75 ± 9.29 mg/dL | Blood glucose level, 2 h post-glucose overload (blood glucose level): 95.25 ± 8.77 mg/dL | Blood glucose level, 3 h post-glucose overload (blood glucose level): 92.00 ± 6.16 mg/dL | Blood glucose level, 4 h post-glucose overload (blood glucose level): 92.75 ± 4.11 mg/dL | Blood glucose level, 6 h post-glucose overload (blood glucose level): 89.75 ± 5.50 mg/dL | Blood glucose level, pre-glucose overload (blood glucose level): 83.25 ± 14.89 mg/dL | AUC(0-24) [4]: 122.96 µg·h/mL | Cmax [4]: 15500 ng/mL | Metformin base concentration in plasma, 0.5 h post-administration [4]: 12.43 ± 2.05 µg/mL | Metformin base concentration in plasma, 1 h post-administration [4]: 15.50 ± 4.49 µg/mL | Metformin base concentration in plasma, 2 h post-administration [4]: 13.47 ± 3.13 µg/mL | Metformin base concentration in plasma, 4 h post-administration [4]: 6.05 ± 0.98 µg/mL | Metformin base concentration in plasma, 8 h post-administration [4]: 6.50 ± 1.57 µg/mL | Metformin base concentration in plasma, 24 h post-administration [4]: 0.22 ± 0.11 µg/mL

diphenformin aspartate
Blood glucose levels before TI/RI administration, Day −3 (before STZ administration) ([3]; mean ± SD): 115.33 ± 10.02 mg/dL

metformin threoninate
Body weight (g) On administration day ([1]; Groups B-K, 250 mg/kg): 193.13 ± 9.66 g | Body weight (g) On distribution day ([1]; Groups B-K, 250 mg/kg): 186.22 ± 10.13 g | Body weight (g) On distribution day ([1]; Groups L-U, 750 mg/kg): 188.55 ± 6.35 g | Body weight (g) On first administration day [1, 6]: 202.15 ± 5.48 g | Body weight (g) On first administration day [1, 7]: 194.20 ± 4.58 g | mortality and clinical signs ([1]; glucokinetic groups, 750 mg/kg for five days): died during the study just after the fifth test item administration | Absolute body weight, Day −3 (before STZ administration) [2]: 231.13 ± 10.20 g | Absolute body weight, Day −1 [2]: 207.33 ± 8.52 g | Absolute body weight, Day −2 (distribution of groups) [2]: 216.43 ± 8.74 g | Blood glucose levels before TI/RI administration, Day −3 (before STZ administration) ([3]; mean ± SD): 117.33 ± 14.05 mg/dL | Blood glucose level, 0.25 h post-glucose overload (blood glucose level): 110.33 ± 16.92 mg/dL | Blood glucose level, 0.5 h post-glucose overload (blood glucose level): 102.67 ± 8.02 mg/dL | Blood glucose level, 1 h post-glucose overload (blood glucose level): 101.67 ± 11.85 mg/dL | Blood glucose level, 2 h post-glucose overload (blood glucose level): 93.67 ± 10.69 mg/dL | Blood glucose level, 3 h post-glucose overload (blood glucose level): 91.67 ± 6.03 mg/dL | Blood glucose level, 4 h post-glucose overload (blood glucose level): 87.67 ± 2.08 mg/dL | Blood glucose level, 6 h post-glucose overload (blood glucose level): 89.33 ± 3.06 mg/dL | Blood glucose level, pre-glucose overload (blood glucose level): 90.33 ± 12.34 mg/dL | AUC(0-24) [4]: 107.62 µg·h/mL | Cmax [4]: 14300 ng/mL | Metformin base concentration in plasma, 0.5 h post-administration [4]: 8.81 ± 2.00 µg/mL | Metformin base concentration in plasma, 1 h post-administration [4]: 14.30 ± 1.70 µg/mL | Metformin base concentration in plasma, 2 h post-administration [4]: 11.53 ± 2.61 µg/mL | Metformin base concentration in plasma, 4 h post-administration [4]: 11.43 ± 1.66 µg/mL | Metformin base concentration in plasma, 8 h post-administration [4]: 3.91 ± 0.33 µg/mL | Metformin base concentration in plasma, 24 h post-administration [4]: 0.23 ± 0.08 µg/mL
